Assay results from patent publication US11820766B2, “Monoacylglycerol lipase modulators” (Janssen Pharmaceutica NV, priority 2018, dated 2023).

Target: T1, human MGL from HeLa cells (Homo sapiens, UniProt Q99685)
T1 construct: combining endogenously expressed MGL from HeLa cells with test compounds; endogenous in cells; host or cells: HeLa cells / cell homogenates
T1 sequence (Q99685 1-303): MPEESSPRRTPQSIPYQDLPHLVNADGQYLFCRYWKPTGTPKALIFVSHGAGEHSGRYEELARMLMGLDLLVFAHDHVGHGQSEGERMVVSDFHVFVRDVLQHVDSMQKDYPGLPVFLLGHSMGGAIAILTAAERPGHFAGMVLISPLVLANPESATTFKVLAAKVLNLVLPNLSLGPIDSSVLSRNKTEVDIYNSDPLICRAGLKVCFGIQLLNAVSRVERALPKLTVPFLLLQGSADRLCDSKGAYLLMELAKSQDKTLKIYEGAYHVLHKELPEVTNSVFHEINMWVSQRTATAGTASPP
Assay: In vitro MGL activity assay: [glycerol-1,3-3H]-oleyl glycerol cleavage by MGL from HeLa cells
Format: biochemical
Conditions: 300 nM [Glycerol-1,3-3H]-oleyl glycerol, one hour incubation
Excerpt: MGL is the predominant hydrolase in HeLa cells/cell homogenates.

IC50 [nM]	SMILES
29.4	COc1ccc(C(=O)N2CCc3c(nn(C)c3-c3cc(F)c(F)c(F)c3)[C@@H]2C)cc1 [Example 261, [(7S)-2,7-Dimethyl-3-(3,4,5-trifluorophenyl)-5,7-dihydro-4H-pyrazolo[3,4-c]pyridin-6-yl]-(4-methoxyphenyl)methanone]
52.8	C[C@H]1c2nn(C)c(-c3cc(F)c(F)c(F)c3)c2CCN1C(=O)c1cccc(OC(F)(F)F)c1 [Example 262, [(7S)-2,7-Dimethyl-3-(3,4,5-trifluorophenyl)-5,7-dihydro-4H-pyrazolo[3,4-c]pyridin-6-yl]-[3-(trifluoromethoxy)phenyl]methanone]
28.3	C[C@H]1c2nn(C)c(-c3cc(F)c(F)c(F)c3)c2CCN1C(=O)c1ccccc1OC(F)(F)F [Example 263, [(7S)-2,7-Dimethyl-3-(3,4,5-trifluorophenyl)-5,7-dihydro-4H-pyrazolo[3,4-c]pyridin-6-yl]-[2-(trifluoromethoxy)phenyl]methanone]
213	C[C@H]1c2nn(C)c(-c3cc(F)c(F)c(F)c3)c2CCN1C(=O)c1ccc(OC(F)F)cc1 [Example 264, [4-(Difluoromethoxy)phenyl]-[(7S)-2,7-dimethyl-3-(3,4,5-trifluorophenyl)-5,7-dihydro-4H-pyrazolo[3,4-c]pyridin-6-yl]methanone]
35	COc1ccc(C(=O)N2CCc3c(nn(C)c3-c3cc(F)c(F)c(F)c3)[C@@H]2C)c(F)c1 [Example 265, [(7S)-2,7-Dimethyl-3-(3,4,5-trifluorophenyl)-5,7-dihydro-4H-pyrazolo[3,4-c]pyridin-6-yl]-(2-fluoro-4-methoxy-phenyl)methanone]
132	CNC(=O)c1cccc(C(=O)N2CCc3c(nn(C)c3-c3cc(F)c(F)c(F)c3)[C@@H]2C)c1 [Example 266, 3-[(7S)-2,7-Dimethyl-3-(3,4,5-trifluorophenyl)-5,7-dihydro-4H-pyrazolo[3,4-c]pyridine-6-carbonyl]-N-methyl-benzamide]
576	C[C@H]1c2nn(C)c(-c3cc(F)c(F)c(F)c3)c2CCN1C(=O)c1ccc(-n2ccnc2)cc1 [Example 267, [(7S)-2,7-Dimethyl-3-(3,4,5-trifluorophenyl)-5,7-dihydro-4H-pyrazolo[3,4-c]pyridin-6-yl]-(4-imidazol-1-ylphenyl)methanone]
24.2	C[C@H]1c2nn(C)c(-c3cc(F)c(F)c(F)c3)c2CCN1C(=O)c1ccc(-c2cn[nH]c2)cc1 [Example 268, [(7S)-2,7-Dimethyl-3-(3,4,5-trifluorophenyl)-5,7-dihydro-4H-pyrazolo[3,4-c]pyridin-6-yl]-[4-(1H-pyrazol-4-yl)phenyl]methanone]
8.92	C[C@H]1c2nn(C)c(-c3cc(F)c(F)c(F)c3)c2CCN1C(=O)c1ccc(-c2ccn[nH]2)cc1 [Example 269, [(7S)-2,7-Dimethyl-3-(3,4,5-trifluorophenyl)-5,7-dihydro-4H-pyrazolo[3,4-c]pyridin-6-yl]-[4-(1H-pyrazol-5-yl)phenyl]methanone]
9.07	C[C@H]1c2nn(C)c(-c3cc(F)c(F)c(F)c3)c2CCN1C(=O)c1cccc(-c2cc[nH]n2)c1 [Example 270, [(7S)-2,7-Dimethyl-3-(3,4,5-trifluorophenyl)-5,7-dihydro-4H-pyrazolo[3,4-c]pyridin-6-yl]-[3-(1H-pyrazol-3-yl)phenyl]methanone]
182	COc1ccc(C(=O)N2CCc3c(nn(C)c3-c3cc(F)c(F)c(F)c3)[C@@H]2C)cc1-c1ccn(C)n1 [Example 271, [(7S)-2,7-Dimethyl-3-(3,4,5-trifluorophenyl)-5,7-dihydro-4H-pyrazolo[3,4-c]pyridin-6-yl]-[4-methoxy-3-(1-methylpyrazol-3-yl)phenyl]methanone]
14.6	C[C@H]1c2nn(C)c(-c3cc(F)c(F)c(F)c3)c2CCN1C(=O)c1cccc(-c2cn[nH]c2)c1 [Example 272, [(7S)-2,7-Dimethyl-3-(3,4,5-trifluorophenyl)-5,7-dihydro-4H-pyrazolo[3,4-c]pyridin-6-yl]-[3-(1H-pyrazol-4-yl)phenyl]methanone]
